Results on 1 molecule are retold here after US20090246776A1, “Modulators of scarb-1 for treating acne or hyperseborrhea” (GALDERMA RESEARCH & DEVELOPMENT, priority 2006, published 2009).

Structures are written as SMILES.

This assay has as its system SCARB-1 gene. The following applies: gonadectomized male mice, short-term treatment; effect not visible at 18, 24, 48 and 96 hours.

Description: The expression of the genes was analyzed on an Affymetrix station (microfluidic model; hybridization oven; scanner; computer) following the protocols provided by the company. Briefly, the total RNA isolated from the tissues is transcribed to cDNA. From the double-stranded cDNA, a cRNA labeled with biotin is synthesized using T7 polymerase and a precursor NTP conjugated to biotin. The cRNAs are then fragmented to small sized fragments. All the molecular biology steps are checked using the Agilent “Lab on a chip” system in order to confirm the good efficiencies of the enzymatic reactions. The Affymetrix chip is hybridized with the biotinylated cRNA, rinsed and then fluorescence labeled using a fluorophore conjugated to streptavidin. After washings, the chip is scanned and the results are calculated using the MAS5 software provided by Affymetrix. An expression value is obtained for each gene as well as the indication of the significance of the value obtained.
B. Male mice were gonadectomized and treated with the vehicle or DHT. A kinetic study of the expression of the gene from 15 minutes to 96 hours was carried out. For this, the preputial glands were removed for a period ranging up to 4 days (androgenic treatment alone observation of a short-term kinetics), the RNA was isolated and the expression of the genes was analyzed by the Affymetrix technique (FIG. 2).

Take `C[C@]12CCC(=O)C[C@@H]1CC[C@@H]1[C@@H]2CC[C@]2(C)[C@@H](O)CC[C@@H]12` [DHT, Dihydrotestosterone]: the “mRNA for SCARB-1 in the mouse preputial gland” value was “not induced”.
